Assay results as given in PMC12931155, “Colorectal Cancer Cell's Weapon: RNF32 Engages SPP1^+ Macrophages to Foster Liver Metastasis, Targeted by Indole‐3‐Acetic Acid” (Advanced Science, 2025).

Target: T1, RNF32 (GFP-RNF32) (Homo sapiens, UniProt Q9H0A6)
T1 construct: GFP-RNF32 fusion from plasmid, expressed in HCT116 cells, diluted cell lysate (not purified)
Experiment: microscale thermophoresis, GFP-RNF32 in HCT116 lysate
Type: biochemical

T1 sequence (Q9H0A6 whole entry, the tested form may be a part): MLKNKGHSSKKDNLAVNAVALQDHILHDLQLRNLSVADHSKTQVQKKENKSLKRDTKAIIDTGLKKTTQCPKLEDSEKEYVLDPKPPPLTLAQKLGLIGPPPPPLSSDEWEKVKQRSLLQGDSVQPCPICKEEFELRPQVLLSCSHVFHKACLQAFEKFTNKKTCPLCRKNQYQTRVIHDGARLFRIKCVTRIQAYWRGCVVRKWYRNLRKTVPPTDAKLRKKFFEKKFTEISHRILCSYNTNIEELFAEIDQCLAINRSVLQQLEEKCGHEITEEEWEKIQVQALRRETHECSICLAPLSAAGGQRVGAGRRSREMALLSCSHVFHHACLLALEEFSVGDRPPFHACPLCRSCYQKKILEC

O=C(O)Cc1c[nH]c2ccccc12 [indole‐3‐acetic acid]
Kd: 41.3 µM
